Measurements from US9902736B2, “1-oxo/acylation-14-acylated oridonin derivative, preparation method therefor and application thereof” (HANGZHOU BENSHENG PHARMACEUTICAL CO., LTD., priority 2012, dated 2018).
≈ marks a conversion by molar mass, not a printed value.

Tested on: K562/ADR
Test: Leukemia cell growth inhibition, MTT, 72 h
Assay type: cell-based
Details: Homo sapiens
From the text: (§1) Leukemia cell lines: leukemia cell lines: K562/adr (drug-resistant, chronic myeloid leukemia, CML), NB4 (acute promyelocytic leukemia, AML), Kasumi-1 (acute myeloid leukemia M2 type, AML-M2), Jurkat (acute lymphoblastic leukemia, ALL), all of which were donated by Cancer Research Institute of Zhejiang University, China; and H9 (acute lymphoblastic leukemia, ALL), which was purchased from China Center for Type Culture Collection.
(§2) 6000 well-growing leukemia cells were obtained and inoculated into wells of a 96-well cell culture plate. […] On the next day, the 1-oxo/acylated-14-acylated oridonin derivatives of different concentrations were added and mixed uniformly. The plate was placed in a carbon dioxide cell incubator (5% CO2) at 37° C. and was incubated for 72 hours. Then the viable cell concentration was determined by MTT method.

IC50 [µg/mL] | IC90 [µg/mL] | SMILES
0.51 (≈ 0.969 µM) | 1.97 (≈ 3.74 µM) | C=C1C(=O)[C@]23[C@H](OC(=O)c4ccc(OC)c(OC)c4)[C@H]1CC[C@H]2[C@@]12CO[C@@]3(O)[C@@H](O)[C@@H]1C(C)(C)CCC2=O [BS-OR-015]

Tested on: Kasumi-1
Test: Leukemia cell growth inhibition, MTT, 72 h
Assay type: cell-based
Details: Homo sapiens
From the text: as §1, §2

IC50 [µg/mL] | IC90 [µg/mL] | SMILES
0.51 (≈ 0.969 µM) | 1.15 (≈ 2.18 µM) | C=C1C(=O)[C@]23[C@H](OC(=O)c4ccc(OC)c(OC)c4)[C@H]1CC[C@H]2[C@@]12CO[C@@]3(O)[C@@H](O)[C@@H]1C(C)(C)CCC2=O [BS-OR-015]

Tested on: H9
Test: Leukemia cell growth inhibition, MTT, 72 h
Assay type: cell-based, human
Details: Homo sapiens, H9; 72 h, MTT
From the text: as §1, §2

IC50 [µg/mL] | IC90 [µg/mL] | SMILES
0.45 (≈ 0.855 µM) | 1.82 (≈ 3.46 µM) | C=C1C(=O)[C@]23[C@H](OC(=O)c4ccc(OC)c(OC)c4)[C@H]1CC[C@H]2[C@@]12CO[C@@]3(O)[C@@H](O)[C@@H]1C(C)(C)CCC2=O [BS-OR-015]

Tested on: Jurkat
Test: Leukemia cell growth inhibition, MTT, 72 h
Assay type: cell-based, human
Details: Homo sapiens, Jurkat; 72 h, MTT
From the text: as §1, §2

IC50 [µg/mL] | IC90 [µg/mL] | SMILES
0.69 (≈ 1.31 µM) | 2.31 (≈ 4.39 µM) | C=C1C(=O)[C@]23[C@H](OC(=O)c4ccc(OC)c(OC)c4)[C@H]1CC[C@H]2[C@@]12CO[C@@]3(O)[C@@H](O)[C@@H]1C(C)(C)CCC2=O [BS-OR-015]

Tested on: NB4
Test: Leukemia cell growth inhibition, MTT, 72 h
Assay type: cell-based, human
Details: Homo sapiens, NB-4; 72 h, MTT
From the text: as §1, §2

IC50 [µg/mL] | IC90 [µg/mL] | SMILES
0.11 (≈ 0.209 µM) | 0.43 (≈ 0.817 µM) | C=C1C(=O)[C@]23[C@H](OC(=O)c4ccc(OC)c(OC)c4)[C@H]1CC[C@H]2[C@@]12CO[C@@]3(O)[C@@H](O)[C@@H]1C(C)(C)CCC2=O [BS-OR-015]

Tested on: RPMI 8226
Test: Multiple myeloma cell growth inhibition, MTT, 72 h
Assay type: cell-based
Details: Homo sapiens
Method: Multiple myeloma cell lines: RPMI8226 (multiple myeloma), purchased from Fuxiang Bio-tech Co. Ltd., Shanghai, China.
as §2, with “well-growing” for “well-growing leukemia”, “and” for “and was”

IC50 [µg/mL] | IC90 [µg/mL] | SMILES
0.3 (≈ 0.57 µM) | 1.85 (≈ 3.51 µM) | C=C1C(=O)[C@]23[C@H](OC(=O)c4ccc(OC)c(OC)c4)[C@H]1CC[C@H]2[C@@]12CO[C@@]3(O)[C@@H](O)[C@@H]1C(C)(C)CCC2=O [BS-OR-015]

Tested on: CNE
Test: Solid tumor cell growth inhibition, MTT, 72 h
Assay type: cell-based, human
Details: Homo sapiens, CNE; 72 h, MTT
Method: (§3) 6000 well-growing human solid tumor cells were obtained and inoculated into wells of a 96-well cell culture plate. The culture medium was DMEM High Glucose cell culture medium containing 10% fetal bovine serum. The plate was placed in a carbon dioxide cell incubator (5% CO2) at 37° C. and incubated for 24 hours. After added with 1-oxo/acylated-14-acylated oridonin derivatives of different concentration and mixed uniformly, the plate was placed in a carbon dioxide cell incubator (5% CO2) at 37° C. and incubated for 72 hours. Then the viable cell concentration was determined by MTT method.

IC50 [µg/mL] | IC90 [µg/mL] | SMILES
1.05 (≈ 1.99 µM) | 4.05 (≈ 7.69 µM) | C=C1C(=O)[C@]23[C@H](OC(=O)c4ccc(OC)c(OC)c4)[C@H]1CC[C@H]2[C@@]12CO[C@@]3(O)[C@@H](O)[C@@H]1C(C)(C)CCC2=O [BS-OR-015]

Tested on: Hela
Test: Solid tumor cell growth inhibition, MTT, 72 h
Assay type: cell-based, human
Details: Homo sapiens, HeLa; 72 h, MTT
Method: as §3

IC50 [µg/mL] | IC90 [µg/mL] | SMILES
1.53 (≈ 2.91 µM) | 3.75 (≈ 7.12 µM) | C=C1C(=O)[C@]23[C@H](OC(=O)c4ccc(OC)c(OC)c4)[C@H]1CC[C@H]2[C@@]12CO[C@@]3(O)[C@@H](O)[C@@H]1C(C)(C)CCC2=O [BS-OR-015]

Tested on: Hep-2
Test: Solid tumor cell growth inhibition, MTT, 72 h
Assay type: cell-based, human
Details: Homo sapiens, HEp-2; 72 h, MTT
Method: as §3

IC50 [µg/mL] | IC90 [µg/mL] | SMILES
1.12 (≈ 2.13 µM) | 5.05 (≈ 9.59 µM) | C=C1C(=O)[C@]23[C@H](OC(=O)c4ccc(OC)c(OC)c4)[C@H]1CC[C@H]2[C@@]12CO[C@@]3(O)[C@@H](O)[C@@H]1C(C)(C)CCC2=O [BS-OR-015]

Tested on: MGC-803
Test: Solid tumor cell growth inhibition, MTT, 72 h
Assay type: cell-based, human
Details: Homo sapiens, MGC-803; 72 h, MTT
Method: as §3

IC50 [µg/mL] | IC90 [µg/mL] | SMILES
0.84 (≈ 1.6 µM) | 4.68 (≈ 8.89 µM) | C=C1C(=O)[C@]23[C@H](OC(=O)c4ccc(OC)c(OC)c4)[C@H]1CC[C@H]2[C@@]12CO[C@@]3(O)[C@@H](O)[C@@H]1C(C)(C)CCC2=O [BS-OR-015]

Tested on: A549
Test: Solid tumor cell growth inhibition, MTT, 72 h
Assay type: cell-based
Details: Homo sapiens
Method: as §3

IC50 [µg/mL] | IC90 [µg/mL] | SMILES
2.38 (≈ 4.52 µM) | 5.33 (≈ 10.1 µM) | C=C1C(=O)[C@]23[C@H](OC(=O)c4ccc(OC)c(OC)c4)[C@H]1CC[C@H]2[C@@]12CO[C@@]3(O)[C@@H](O)[C@@H]1C(C)(C)CCC2=O [BS-OR-015]

Tested on: Becap-37
Test: Solid tumor cell growth inhibition, MTT, 72 h
Assay type: cell-based
Details: Homo sapiens
Method: as §3

IC50 [µg/mL] | IC90 [µg/mL] | SMILES
0.99 (≈ 1.88 µM) | 3.17 (≈ 6.02 µM) | C=C1C(=O)[C@]23[C@H](OC(=O)c4ccc(OC)c(OC)c4)[C@H]1CC[C@H]2[C@@]12CO[C@@]3(O)[C@@H](O)[C@@H]1C(C)(C)CCC2=O [BS-OR-015]

Tested on: CaEs-17
Test: Solid tumor cell growth inhibition, MTT, 72 h
Assay type: cell-based
Details: Homo sapiens, CaEs17
Method: as §3

IC50 [µg/mL] | IC90 [µg/mL] | SMILES
0.95 (≈ 1.8 µM) | 3.05 (≈ 5.79 µM) | C=C1C(=O)[C@]23[C@H](OC(=O)c4ccc(OC)c(OC)c4)[C@H]1CC[C@H]2[C@@]12CO[C@@]3(O)[C@@H](O)[C@@H]1C(C)(C)CCC2=O [BS-OR-015]

Tested on: Hep G2
Test: Solid tumor cell growth inhibition, MTT, 72 h
Assay type: cell-based
Details: Homo sapiens, HepG2
Method: as §3

IC50 [µg/mL] | IC90 [µg/mL] | SMILES
0.94 (≈ 1.79 µM) | 5.47 (≈ 10.4 µM) | C=C1C(=O)[C@]23[C@H](OC(=O)c4ccc(OC)c(OC)c4)[C@H]1CC[C@H]2[C@@]12CO[C@@]3(O)[C@@H](O)[C@@H]1C(C)(C)CCC2=O [BS-OR-015]

Tested on: MG-63
Test: Solid tumor cell growth inhibition, MTT, 72 h
Assay type: cell-based
Details: Homo sapiens
Method: as §3

IC50 [µg/mL] | IC90 [µg/mL] | SMILES
0.4 (≈ 0.76 µM) | 0.96 (≈ 1.82 µM) | C=C1C(=O)[C@]23[C@H](OC(=O)c4ccc(OC)c(OC)c4)[C@H]1CC[C@H]2[C@@]12CO[C@@]3(O)[C@@H](O)[C@@H]1C(C)(C)CCC2=O [BS-OR-015]

Tested on: PANC-1
Test: Solid tumor cell growth inhibition, MTT, 72 h
Assay type: cell-based
Details: Homo sapiens
Method: as §3

IC50 [µg/mL] | IC90 [µg/mL] | SMILES
1.88 (≈ 3.57 µM) | 9.81 (≈ 18.6 µM) | C=C1C(=O)[C@]23[C@H](OC(=O)c4ccc(OC)c(OC)c4)[C@H]1CC[C@H]2[C@@]12CO[C@@]3(O)[C@@H](O)[C@@H]1C(C)(C)CCC2=O [BS-OR-015]

Tested on: PC-3
Test: Solid tumor cell growth inhibition, MTT, 72 h
Assay type: cell-based
Details: Homo sapiens
Method: as §3

IC50 [µg/mL] | IC90 [µg/mL] | SMILES
1.66 (≈ 3.15 µM) | 3.04 (≈ 5.77 µM) | C=C1C(=O)[C@]23[C@H](OC(=O)c4ccc(OC)c(OC)c4)[C@H]1CC[C@H]2[C@@]12CO[C@@]3(O)[C@@H](O)[C@@H]1C(C)(C)CCC2=O [BS-OR-015]

Tested on: RKO
Test: Solid tumor cell growth inhibition, MTT, 72 h
Assay type: cell-based
Details: Homo sapiens
Method: as §3

IC50 [µg/mL] | IC90 [µg/mL] | SMILES
0.42 (≈ 0.798 µM) | 0.94 (≈ 1.79 µM) | C=C1C(=O)[C@]23[C@H](OC(=O)c4ccc(OC)c(OC)c4)[C@H]1CC[C@H]2[C@@]12CO[C@@]3(O)[C@@H](O)[C@@H]1C(C)(C)CCC2=O [BS-OR-015]

Tested on: SK-OV-3
Test: Solid tumor cell growth inhibition, MTT, 72 h
Assay type: cell-based
Details: Homo sapiens, SK-OV-3; 72 h, MTT; read-out: IC50 SK-OV-3
Method: as §3

IC50 [µg/mL] | SMILES
1.66 (≈ 3.15 µM) | C=C1C(=O)[C@]23[C@H](OC(=O)c4ccc(OC)c(OC)c4)[C@H]1CC[C@H]2[C@@]12CO[C@@]3(O)[C@@H](O)[C@@H]1C(C)(C)CCC2=O [BS-OR-015]

Same assay, conditions: Homo sapiens, SK-OV-3; 72 h, MTT; read-out: IC90 SK-OV-3

IC90 [µg/mL] | SMILES
3.04 (≈ 5.77 µM) | C=C1C(=O)[C@]23[C@H](OC(=O)c4ccc(OC)c(OC)c4)[C@H]1CC[C@H]2[C@@]12CO[C@@]3(O)[C@@H](O)[C@@H]1C(C)(C)CCC2=O [BS-OR-015]

Tested on: U87-MG
Test: Solid tumor cell growth inhibition, MTT, 72 h
Assay type: cell-based
Details: Homo sapiens, U-87 MG
Method: as §3

IC50 [µg/mL] | IC90 [µg/mL] | SMILES
0.87 (≈ 1.65 µM) | 2.41 (≈ 4.58 µM) | C=C1C(=O)[C@]23[C@H](OC(=O)c4ccc(OC)c(OC)c4)[C@H]1CC[C@H]2[C@@]12CO[C@@]3(O)[C@@H](O)[C@@H]1C(C)(C)CCC2=O [BS-OR-015]
